# Laboratory results reported in patent US20240217951A1, “PCSK9 INHIBITORS AND METHODS OF USE THEREOF” (AstraZeneca AB, priority 2022, published 2024).
# pEC50, pIC50: −log10 of the molar value.
# Tests used:
# PCSK9 [1] = biological target: T1, PCSK9 (Homo sapiens, UniProt Q8NBP7, G670E/V474I); experiment: Assay 3 - PCSK9 LDL-C uptake assay in HepG2 cells; assay type: cell-based; set-up: TEV cleavage site (C); His6 (C); host or cells: added to HepG2 cells (ATCC #HB-8065); details: 125 nM PCSK9, pHrodo Red-LDL, read-out: Assay 3 LDL uptake potency
# Text: Assay 3—PCSK9 LDL-C Uptake Assay
# This assay measures for PCSK9 antagonist activity based on a test compound's capacity to restore LDL-C-uptake in HepG2 cells. The assay is based on exogenous PCSK9 and LDL-C complexed with a pH-sensitive dye. Outside the cells, at neutral pH, the pHrodo Red-LDL is dimly fluorescent but upon LDLR mediated endocytosis it fluoresces brightly. PCSK9 traffics the LDLR to intracellular degradation and reduces uptake of LDL-C. Inhibition of PCSK9 reduces LDLR degradation and the increased LDL-C uptake is quantified by fluorescence microscopy.
# Preparation of Assay Reagents
# Cell medium: MEM supplemented with 10% FBS, 1×NEAA and Sodium Pyruvate Assay medium: OptiMem supplemented with penicillin/streptomycin
# Cells: HepG2 (ATCC #HB-8065)
# Step by Step Protocol for Running the Assay:
# • 1. Cryopreserved HepG2 cells were thawed in assay medium and centrifuged for 5 min at 250 g. Supernatant was discarded and the cell pellet resuspended in cell medium and counted with a Nucleocounter. Cells were again centrifuged 5 min at 250 g and the pellet was resuspended to 500000 cells/mL in assay medium. • 2. 20 μL of above cell mix was dispensed into black pclear TC treated 384 well plates with Multidrop Combi and left at room temperature for 20 minutes. • 3. Plates were incubated at 37° C., 5% CO2 for 24 h
# • 1. Test compounds were prepared in concentration response in DMSO with a half-log dilution factor in DMSO in Echo 384 LDV plates starting at 10 mM. • 2. 30 nL of above test compounds were dispensed with Echo 655 to cells for a top concentration of 10 μM • 3. 10 μL PCSK9 in assay medium was dispensed to cells with Multidrop Combi for 125 nM final concentration in the wells. • 4. Plates were incubated at 37° C., 5% CO2 for 24 h
# • 1. 10 μL pHrodo Red-LDL in assay medium was dispensed to cells with Multidrop Combi for 6 μg/mL • 2. Plates were incubated at 37° C., 5% CO2 and imaged with the Incucyte S3 after 4 h and 24 h
# Image data was processed using Incucyte 2021, a software to identify cells and red fluorescent intensity. Screener was used to further process data. Data was normalized as % effect of the signal between median values of the on-plate controls of DMSO and 100 nM Evolocumab according to the formula % effect=−100*(x−DMSO)/(Evolocumab−DMSO) where x equals the measured signal. Concentration response data of the normalized values were fitted using a four-parameter logistic fit.
# PCSK9 [2] = biological target: T1, PCSK9; experiment: biochemical
# [3] = biological target: GSK3β (Glycogen synthase kinase-3 beta) (Homo sapiens, UniProt P49841); experiment: Assay 6 - GSK3β assay (ThermoFisher Z-Lyte); assay type: biochemical; details: geometric mean; ATP Conc: 10 μM; read-out: Assay 6 (GSK3β FRET-Z-Lyte CR) GMean IC50 (μM) ATP Conc: 10
# In short: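 Z-Lyte fluorescence kinase assay with 0.22-0.92 ng GSK3β and 2 μM Ser/Thr 09 peptide in 50 mM HEPES pH 7.5, 10 mM MgCl2, 1 mM EGTA, 0.01% BRIJ-35. Kinase reaction 60 min at room temperature, then 60 min development. 10-point 3-fold titration from 10 μM in 1% DMSO, fitted to a sigmoidal dose-response curve.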
# [4] = biological target: T2, potassium ion channel hERG (human Ether-á-go-go-Related Gene) (Homo sapiens, UniProt Q12809); experiment: Assay 5 - hERG assay (SyncroPatch 384PE patch clamp, CHO cells); assay type: cell-based; details: geometric mean; CHO cells over-expressing hERG; read-out: Assay 5 (hERG Hu CHO IF EPh CR-Syncro) GMean IC50
# T2 construct: expressed in transfected cells; host or cells: Chinese hamster ovary K1 (CHO)
# In short: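 Automated high-throughput patch clamp on CHO-K1 cells overexpressing hERG at room temperature, KF/KCl internal with escin, NMDG-containing external at pH 7.4. Six-point cumulative compound addition, 0.33% DMSO final; wells kept only with seal >30 MΩ, Z′ >0.4 and current >0.2 nA.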
# T2 sequence (Q12809 whole entry): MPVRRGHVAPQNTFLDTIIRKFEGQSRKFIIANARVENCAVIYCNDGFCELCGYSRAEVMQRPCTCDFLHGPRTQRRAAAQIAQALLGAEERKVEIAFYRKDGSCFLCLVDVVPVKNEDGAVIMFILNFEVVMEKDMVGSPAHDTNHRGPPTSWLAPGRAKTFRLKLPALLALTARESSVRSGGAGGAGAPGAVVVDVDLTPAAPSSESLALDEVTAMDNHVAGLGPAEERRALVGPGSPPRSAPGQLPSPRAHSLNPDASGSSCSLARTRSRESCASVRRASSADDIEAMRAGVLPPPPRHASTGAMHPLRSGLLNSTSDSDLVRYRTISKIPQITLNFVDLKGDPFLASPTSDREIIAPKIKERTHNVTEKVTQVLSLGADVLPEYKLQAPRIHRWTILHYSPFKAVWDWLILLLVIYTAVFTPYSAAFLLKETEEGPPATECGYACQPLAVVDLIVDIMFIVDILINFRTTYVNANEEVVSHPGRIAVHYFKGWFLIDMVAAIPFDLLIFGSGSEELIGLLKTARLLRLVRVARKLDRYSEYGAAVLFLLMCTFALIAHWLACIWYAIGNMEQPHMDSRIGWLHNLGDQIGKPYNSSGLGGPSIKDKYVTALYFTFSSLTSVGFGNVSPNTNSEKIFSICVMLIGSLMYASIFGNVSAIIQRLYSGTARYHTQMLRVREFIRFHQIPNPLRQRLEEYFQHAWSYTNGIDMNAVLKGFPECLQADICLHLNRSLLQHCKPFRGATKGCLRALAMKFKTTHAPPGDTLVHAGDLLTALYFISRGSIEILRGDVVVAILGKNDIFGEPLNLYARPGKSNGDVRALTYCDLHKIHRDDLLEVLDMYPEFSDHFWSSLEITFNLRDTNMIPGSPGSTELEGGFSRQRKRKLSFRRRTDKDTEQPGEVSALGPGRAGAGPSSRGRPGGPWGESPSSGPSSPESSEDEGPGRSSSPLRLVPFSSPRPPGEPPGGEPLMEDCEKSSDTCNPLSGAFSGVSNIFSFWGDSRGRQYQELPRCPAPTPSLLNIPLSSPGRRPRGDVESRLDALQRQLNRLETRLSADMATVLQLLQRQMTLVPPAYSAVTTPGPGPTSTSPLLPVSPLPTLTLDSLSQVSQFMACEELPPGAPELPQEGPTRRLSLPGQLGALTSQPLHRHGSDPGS
# Chain of GSK3β (Glycogen synthase kinase-3 beta) (P49841 whole entry): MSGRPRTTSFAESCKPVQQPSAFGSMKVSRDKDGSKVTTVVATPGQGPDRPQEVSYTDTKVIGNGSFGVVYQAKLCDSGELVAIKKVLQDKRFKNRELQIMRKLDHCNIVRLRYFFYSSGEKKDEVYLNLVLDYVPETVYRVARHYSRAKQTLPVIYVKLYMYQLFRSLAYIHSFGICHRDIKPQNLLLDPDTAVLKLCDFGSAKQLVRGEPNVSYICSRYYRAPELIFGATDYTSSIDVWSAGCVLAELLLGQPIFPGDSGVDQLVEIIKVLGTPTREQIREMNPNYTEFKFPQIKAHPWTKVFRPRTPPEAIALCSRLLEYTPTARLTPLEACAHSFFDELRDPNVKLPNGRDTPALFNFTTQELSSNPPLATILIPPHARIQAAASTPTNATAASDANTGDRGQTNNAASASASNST
# T1 sequence (Q8NBP7 with tags, fused parts or gaps V474I/G670E): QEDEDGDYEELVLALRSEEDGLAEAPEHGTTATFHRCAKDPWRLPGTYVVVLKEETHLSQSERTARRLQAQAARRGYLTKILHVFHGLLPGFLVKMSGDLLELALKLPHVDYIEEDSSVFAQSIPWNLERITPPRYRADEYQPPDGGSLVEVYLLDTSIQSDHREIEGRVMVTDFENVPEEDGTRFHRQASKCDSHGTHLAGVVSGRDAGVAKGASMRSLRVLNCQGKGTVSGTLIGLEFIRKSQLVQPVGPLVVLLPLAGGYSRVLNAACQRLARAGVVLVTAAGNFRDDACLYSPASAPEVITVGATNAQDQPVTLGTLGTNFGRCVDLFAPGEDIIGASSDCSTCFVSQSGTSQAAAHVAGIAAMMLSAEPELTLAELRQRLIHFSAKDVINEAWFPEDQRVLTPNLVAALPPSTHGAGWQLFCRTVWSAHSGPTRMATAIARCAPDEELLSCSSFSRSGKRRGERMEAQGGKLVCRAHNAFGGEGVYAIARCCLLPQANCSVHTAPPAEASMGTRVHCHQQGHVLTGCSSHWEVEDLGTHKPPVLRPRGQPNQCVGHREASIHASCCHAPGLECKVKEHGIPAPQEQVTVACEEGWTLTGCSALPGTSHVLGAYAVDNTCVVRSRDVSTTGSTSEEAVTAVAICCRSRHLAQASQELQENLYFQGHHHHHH
SMILES,pEC50 (PCSK9 [1]),pIC50 (PCSK9 [2]),IC50 [3],pIC50 [4]
"O=c1ccc2cccnc2n1-c1ccc(N[C@H]2CC[C@H](Nc3cnc(Cl)cn3)C2)nc1 [Example 34, 1-(6-(((1S,3S)-3-((5-Chloropyrazin-2-yl)amino)cyclopentyl)amino)pyridin-3-yl)-1,8-naphthyridin-2 (1H)-one]",7.00,8.29,> 10 µM,4.81
"Cc1cnc(N[C@H]2CC[C@H](Nc3ccc(-n4c(=O)ccc5ccccc54)cn3)C2)cn1 [Example 38, 1-(6-(((1S,3S)-3-((5-Methylpyrazin-2-yl)amino)cyclopentyl)amino)pyridin-3-yl)quinolin-2(1H)-one]",7.00,8.66,> 10 µM,4.60
"Cc1cnc(N[C@H]2CC[C@H](Nc3ccc(-n4cc(Cl)ccc4=O)cn3)C2)cn1 [Example 43, 5-Chloro-6′-(((1S,3S)-3-((5-methylpyrazin-2-yl)amino)cyclopentyl)amino)-2H-[1,3′-bipyridin]-2-one]",6.15,7.66,> 10 µM,< 4.40
"Cc1cccn(-c2ccc(N[C@H]3CC[C@H](Nc4cnc(OC(F)F)cn4)C3)nc2)c1=O [Example 84, 6′-(((1S,3S)-3-((5-(Difluoromethoxy)pyrazin-2-yl)amino)cyclopentyl)amino)-3-methyl-2H-[1,3′-bipyridin]-2-one]",6.15,7.96,> 10 µM,5.16
"O=c1c(Cl)cccn1-c1ccc(N[C@H]2CC[C@H](Nc3cnc(OC(F)F)cn3)C2)nc1 [Example 85, 3-Chloro-6′-(((1S,3S)-3-((5-(difluoromethoxy)pyrazin-2-yl)amino)cyclopentyl)amino)-2H-[1,3′-bipyridin]-2-one]",6.70,8.37,> 10 µM,5.25
"O=c1ccc2cccnc2n1-c1ccc(N[C@H]2CC[C@H](Nc3cnc(OC(F)F)cn3)C2)nc1 [Example 87, 1-(6-(((1S,3S)-3-((5-(Difluoromethoxy)pyrazin-2-yl)amino)cyclopentyl)amino)pyridin-3-yl)-1,8-naphthyridin-2 (1H)-one]",7.00,8.04,> 10 µM,4.74
"O=c1ccc2ccccc2n1-c1ccc(N[C@H]2CC[C@H](Nc3cnc(OC(F)F)cn3)C2)nc1 [Example 88, 1-(6-(((1S,3S)-3-((5-(Difluoromethoxy)pyrazin-2-yl)amino)cyclopentyl)amino)pyridin-3-yl)quinolin-2 (1H)-one]",6.70,8.35,> 10 µM,5.35
"Cn1c(=O)n(-c2ccc(N[C@H]3CC[C@H](Nc4cnc(OC(F)F)cn4)C3)nc2)c2ncccc21 [Example 96, 3-(6-(((1S,3S)-3-((5-(Difluoromethoxy)pyrazin-2-yl)amino)cyclopentyl)amino)pyridin-3-yl)-1-methyl-1,3-dihydro-2H-imidazo[4,5-b]pyridin-2-one]",6.15,8.14,> 10 µM,4.91
"Cn1c(=O)n(-c2ccc(N[C@H]3CC[C@H](Nc4cnc(Cl)cn4)C3)nc2)c2ncccc21 [Example 98, 3-(6-(((1S,3S)-3-((5-Chloropyrazin-2-yl)amino)cyclopentyl)amino)pyridin-3-yl)-1-methyl-1,3-dihydro-2H-imidazo[4,5-b]pyridin-2-one]",6.10,8.38,> 10 µM,4.97
"N#Cc1cccn(-c2ccc(N[C@H]3CC[C@H](Nc4cnc(Cl)cn4)C3)nc2)c1=O [Example 101, 6′-(((1S,3S)-3-((5-Chloropyrazin-2-yl)amino)cyclopentyl)amino)-2-oxo-2H-[1,3′-bipyridine]-3-carbonitrile]",6.22,8.26,> 10 µM,4.71
"N#Cc1cccn(-c2ccc(N[C@H]3CC[C@H](Nc4cnc(C5CC5)cn4)C3)nc2)c1=O [Example 104, 6′-(((1S,3S)-3-((5-Cyclopropylpyrazin-2-yl)amino)cyclopentyl)amino)-2-oxo-2H-[1,3′-bipyridine]-3-carbonitrile]",6.30,8.24,> 10 µM,4.62
"Cn1c(=O)n(-c2ccc(N[C@H]3CC[C@H](Nc4cnc(C5CC5)cn4)C3)nc2)c2ncccc21 [Example 105, 3-(6-(((1S,3S)-3-((5-Cyclopropylpyrazin-2-yl)amino)cyclopentyl)amino)pyridin-3-yl)-1-methyl-1,3-dihydro-2H-imidazo[4,5-b]pyridin-2-one]",6.10,8.19,> 10 µM,4.69
"O=c1c(Cl)cccn1-c1ccc(N[C@H]2CC[C@H](Nc3cnc(C4CC4)cn3)C2)nc1 [Example 108, 3-Chloro-6′-(((1S,3S)-3-((5-Cyclopropylpyrazin-2-yl)amino)cyclopentyl)amino)-2H-[1,3′-bipyridin]-2-one]",6.40,8.47,> 10 µM,4.90
"Cc1cnc(N[C@H]2CC[C@H](Nc3ccc(-n4cccc(C(F)(F)F)c4=O)cn3)C2)cn1 [Example 147, 6′-(((1S,3S)-3-((5-Methylpyrazin-2-yl)amino)cyclopentyl)amino)-3-(trifluoromethyl)-2H-[1,3′-bipyridin]-2-one]",7.00,8.28,> 10 µM,4.78
"Cc1cnc(N[C@H]2CC[C@H](Nc3ccc(-n4cccc(OC(F)(F)F)c4=O)cn3)C2)cn1 [Example 148, 6′-(((1S,3S)-3-((5-Methylpyrazin-2-yl)amino)cyclopentyl)amino)-3-(trifluoromethoxy)-2H-[1,3′-bipyridin]-2-one]",6.70,8.10,> 10 µM,< 4.40
"Cc1ncc(N[C@H]2CC[C@H](Nc3ccc(-n4cc(-c5nnn[nH]5)ccc4=O)cn3)C2)nc1C [Example 176, 6′-(((1S,3S)-3-((5,6-Dimethylpyrazin-2-yl)amino)cyclopentyl)amino)-5-(1H-tetrazol-5-yl)-2H-[1,3′-bipyridin]-2-one]",7.00,7.92,> 10 µM,< 4.40
"Cc1cnc(N[C@H]2CC[C@H](Nc3ccc(-n4cc(-c5nnn[nH]5)ccc4=O)cn3)C2)cn1 [Example 177, 6′-(((1S,3S)-3-((5-Methylpyrazin-2-yl)amino)cyclopentyl)amino)-5-(1H-tetrazol-5-yl)-2H-[1,3′-bipyridin]-2-one]",6.70,8.27,> 10 µM,< 4.40
"O=c1ccc(-c2nnn[nH]2)cn1-c1ccc(N[C@H]2CC[C@H](Nc3cnc(OC(F)F)cn3)C2)nc1 [Example 178, 6′-(((1S,3S)-3-((5-(Difluoromethoxy)pyrazin-2-yl)amino)cyclopentyl)amino)-5-(1H-tetrazol-5-yl)-2H-[1,3′-bipyridin]-2-one]",7.00,8.00,> 10 µM,< 4.40
"Cc1cnc(N[C@H]2CC[C@H](Nc3ccc(-n4cccc(-c5cn[nH]c5)c4=O)cn3)C2)cn1 [Example 204, 6′-(((1S,3S)-3-((5-Methylpyrazin-2-yl)amino)cyclopentyl)amino)-3-(1H-pyrazol-4-yl)-2H-[1,3′-bipyridin]-2-one]",6.40,8.46,> 10 µM,< 4.40
